The results in this text go back to patent US20020183256A1, “Cytostatic-integrin conjugates having specifically cleavable linking units” (priority 2000, published 2002).

The target in one data set is T1, αvβ3 receptor (Homo sapiens, UniProt P05106+P06756).
T1 construct: αvβ3 from human A375 cells was purified; endogenous in cells; host or cells: human A375 cells (receptor purified from the cells, analogous to Wong et al. 1996)
The data set can be described thus: αvβ3 binding test (echistatin displacement, WGA SPA beads). As to conditions: αvβ3 from human A375 cells. As for the experimental part:
αvβ3 from human A375 cells was purified analogously to a procedure which was described by Wong et al. (Molecular Pharmacology, 50, 529-537 (1996)). In each case, 10 μl of αvβ3 (5 ng) in TBS pH 7.6, 2 mM CaCl2, 1 mM MgCl2, 1% n-octylglucopyranoside (Sigma); 10 μl of test substance in TBS pH 7.6, 0.1% DMSO and 45 μl of TBS pH 7.6, 2 mM CaCl2, 1 mM MgCl2, 1 mM MnCl2 were incubated at room temperature for 1 h. In each case, 25 μl of WGA SPA beads (Amersham, 4 mg/ml) and 10 μl of echistatin (0.1 μCi, Amersham, chloramine-T labelled) were then added. After 16 hours at room temperature, the samples were measured in a scintillation measuring apparatus (Wallac 1450).

Another data set relates to SW 480. The data set can be described thus: Growth inhibition test (MTT), cytotoxic action on tumour cell lines. It counts as cell-based, human. As for the experimental part: (§1) The human large intestine cell lines SW 480 and HT29 (ATCC No. CCL 228 and HTB38 and the mouse melanoma cell line B16F10 (CRL 6475) were grown to confluence in Roux dishes in RPMI 1640 medium with addition of 10% FCS. They were then trypsinized and taken up in RPMI plus 10% FCS to a cell count of 50,000 cells or, for B16F10, 20,000 cells per ml. 100 μl of cell suspension/well were added to a 96 microwell plate and incubated at 37° C. for 1 day in a CO2 incubator. A further 100 μl of RPMI medium and 1 μl of DMSO were then added with the test substances. The growth was checked after day 6. For this, 25 μl of MTT solution (3-(4,5-dimethylthiazol-2-yl)-2,5-diphenyltetrazolium bromide) was added to each well at a starting concentration of 5 mg/ml of H2O. The plate was incubated at 37° C. for 5 hours in a CO2 incubator. The medium was then aspirated and 100 μl of i-propanol/well were added. After shaking with 100 μl of H2O for 30 min, the extinction was measured at 595 nm using a Multiplate Reader (BIO-RAD) 3550-UV).
(§2) The cytostatic action is indicated in Table 2 as an IC50 value, in each case for the individual cell lines.

For a further data set, the system named is HT29. Described as above. Format: cell-based, human. The procedure:
as §1, §2

The next data set relates to B16F10. The description is as above. It counts as cell-based, mouse. As for the experimental part: as §1, §2
A further data set has as its target T2, MMP-2 (Homo sapiens, UniProt P08253).
T2 construct: purchased Calbiochem
T2 sequence (P08253 110-660): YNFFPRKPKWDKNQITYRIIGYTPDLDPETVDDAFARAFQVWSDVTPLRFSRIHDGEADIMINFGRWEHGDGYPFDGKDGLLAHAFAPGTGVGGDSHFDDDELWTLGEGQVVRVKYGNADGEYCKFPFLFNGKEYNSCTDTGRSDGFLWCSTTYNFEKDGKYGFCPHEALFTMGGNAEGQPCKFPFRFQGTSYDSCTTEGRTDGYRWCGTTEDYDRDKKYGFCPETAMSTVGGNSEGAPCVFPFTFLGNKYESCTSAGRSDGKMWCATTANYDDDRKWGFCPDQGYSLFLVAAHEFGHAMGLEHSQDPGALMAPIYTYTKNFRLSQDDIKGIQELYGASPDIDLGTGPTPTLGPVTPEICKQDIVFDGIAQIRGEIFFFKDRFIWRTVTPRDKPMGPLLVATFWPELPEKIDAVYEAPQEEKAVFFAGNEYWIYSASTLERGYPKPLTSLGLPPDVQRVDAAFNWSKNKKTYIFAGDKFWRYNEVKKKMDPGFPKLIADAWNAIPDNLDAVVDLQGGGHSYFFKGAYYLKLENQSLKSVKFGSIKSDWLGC
The experiment in a line: Cleavage of conjugates by MMP-2 in buffer (HPLC). Format: biochemical. The conditions noted are these: after 6 h incubation with MMP-2; buffer pH 7.5. The procedure:
2.5 μl MMP-2 (Calbiochem) with a specific activity of 60 μU/μl are incubated with 10 nM of the conjugates exemplified in the example series 1-25 in 1 ml of a medium consisting of 50 mM Tris-HCl pH 7.5, 0.2 M NaCl, 10 mM CaCL2*2H2O and 0.05% Brij 35. The enzyme mediated cleavage of the conjugates is detected by HPLC analysis using an RP18 (5 μM) column with 70% HClO4/water (0.4% v/v) as eluent A and acentonitrile as eluent B (UV detection at […]). The efficiency of the cleavage is assessed by comparing the peak areas of the intact conjugate (starting material) and the cleavage product (tripeptide conjugate of camptothecin) after 6 h and 24 h incubation (cf. Table 5).

The mark [1] stands for this setting: IC50 values of the binding to the αvβ3 receptor.
Where [2] appears, read: SW480, MTT after day 6, read-out: IC50 values of the cytotoxic action on tumour cell lines, SW480.
The mark [3] stands for this setting: HT29, MTT after day 6, read-out: IC50 values of the cytotoxic action on tumour cell lines, HT29.
[4] abbreviates: B16F10, MTT after day 6, read-out: IC50 values of the cytotoxic action on tumour cell lines, B16F10.
Where [5] appears, read: read-out: IC50 values of the binding to the αvβ3 receptor.

The structures appear in SMILES notation. Like-named read-outs stand apart in the source and are kept apart here. *1 amine or outer side, *2 acyl side, *3 side chain or, on linkers, in order; H or OH if unused. Where a SMILES comes first, the peptide text is derived from it. [ ]: non-standard residue; d: D form. The star is where a group is joined. Camptothecin(20R,20-O) = CC[C@]1(O*)C(=O)OCc2c1cc1n(c2=O)Cc2cc3ccccc3nc2-1; X2 = CCCNC(=O)Nc1cccc(S(=O)(=O)Nc2cccc(C(CC(=O)O)NC(=O)Nc3ccc(N*)cc3)c2)c1; X3 = O=C(Nc1cccc(-c2ccc(S(=O)(=O)*)cc2)c1)Nc1nc2ccccc2[nH]1; X5 = O=C(Nc1cccc(-c2cccc(S(=O)(=O)*)c2)c1)Nc1nc2ccccc2[nH]1; X4 = O=C(O)CC(N[*:1])c1cccc(NC(=S)[*:2])c1; CO = O=C([*:1])[*:2]; GABA = NCCCC(=O)O

T1 sequence (P06756 31-889 limits assumed): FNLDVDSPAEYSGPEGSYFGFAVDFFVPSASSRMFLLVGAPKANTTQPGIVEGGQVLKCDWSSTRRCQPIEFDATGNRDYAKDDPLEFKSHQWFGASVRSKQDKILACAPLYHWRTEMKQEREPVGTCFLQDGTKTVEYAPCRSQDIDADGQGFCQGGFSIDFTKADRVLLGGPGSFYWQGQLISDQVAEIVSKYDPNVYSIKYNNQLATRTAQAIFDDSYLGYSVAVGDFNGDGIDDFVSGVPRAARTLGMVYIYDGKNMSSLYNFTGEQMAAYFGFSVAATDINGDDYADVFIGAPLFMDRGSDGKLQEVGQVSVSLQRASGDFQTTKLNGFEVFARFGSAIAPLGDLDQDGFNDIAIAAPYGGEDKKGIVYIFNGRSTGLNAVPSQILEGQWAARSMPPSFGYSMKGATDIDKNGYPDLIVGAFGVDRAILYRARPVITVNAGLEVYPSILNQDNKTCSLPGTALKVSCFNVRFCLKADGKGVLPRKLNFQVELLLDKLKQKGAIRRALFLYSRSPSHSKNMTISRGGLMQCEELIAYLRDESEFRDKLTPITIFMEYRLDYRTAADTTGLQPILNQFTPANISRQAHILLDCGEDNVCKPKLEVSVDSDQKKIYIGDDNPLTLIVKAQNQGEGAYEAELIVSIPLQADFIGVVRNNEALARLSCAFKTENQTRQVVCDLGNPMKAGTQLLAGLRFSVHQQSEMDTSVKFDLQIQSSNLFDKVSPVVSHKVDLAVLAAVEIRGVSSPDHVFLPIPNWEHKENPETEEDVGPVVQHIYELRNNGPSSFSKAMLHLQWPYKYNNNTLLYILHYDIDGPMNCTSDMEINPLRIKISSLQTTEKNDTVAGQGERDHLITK
T1 sequence (P06756 891-1048 partner limits assumed): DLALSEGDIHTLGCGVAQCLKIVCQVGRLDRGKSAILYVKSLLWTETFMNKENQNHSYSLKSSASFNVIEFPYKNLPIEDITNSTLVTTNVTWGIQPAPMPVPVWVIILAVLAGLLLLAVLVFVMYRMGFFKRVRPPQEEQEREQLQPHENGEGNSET
T1 sequence (P05106 27-788): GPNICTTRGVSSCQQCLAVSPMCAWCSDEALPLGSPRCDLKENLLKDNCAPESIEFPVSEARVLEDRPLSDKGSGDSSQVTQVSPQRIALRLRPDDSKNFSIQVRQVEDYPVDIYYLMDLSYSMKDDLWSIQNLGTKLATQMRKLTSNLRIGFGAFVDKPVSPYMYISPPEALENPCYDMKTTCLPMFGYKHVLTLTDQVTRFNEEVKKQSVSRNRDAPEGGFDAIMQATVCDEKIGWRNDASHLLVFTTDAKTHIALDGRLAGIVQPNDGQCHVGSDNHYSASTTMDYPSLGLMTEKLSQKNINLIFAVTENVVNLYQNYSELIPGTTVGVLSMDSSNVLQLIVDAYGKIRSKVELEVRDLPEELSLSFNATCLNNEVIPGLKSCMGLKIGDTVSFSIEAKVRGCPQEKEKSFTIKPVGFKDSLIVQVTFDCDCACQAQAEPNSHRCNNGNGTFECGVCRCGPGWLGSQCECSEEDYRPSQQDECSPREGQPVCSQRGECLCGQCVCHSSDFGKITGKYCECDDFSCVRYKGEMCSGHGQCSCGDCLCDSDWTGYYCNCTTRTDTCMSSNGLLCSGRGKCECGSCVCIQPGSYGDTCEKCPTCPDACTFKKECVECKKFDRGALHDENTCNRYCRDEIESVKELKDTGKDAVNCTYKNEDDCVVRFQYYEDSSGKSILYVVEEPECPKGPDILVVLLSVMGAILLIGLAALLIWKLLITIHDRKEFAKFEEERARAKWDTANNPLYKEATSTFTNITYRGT

As usually defined, the IC50 is the concentration that inhibits the measured activity by half. With `CC[C@]1(OC(=O)[C@H](NC(=O)[C@@H](Cc2c[nH]cn2)NC(=O)[C@@H](CC(C)C)NC(=O)CNC(=O)[C@H](CC(C)C)NC(=O)[C@H]2CCCN2C(=S)Nc2cccc(C(CC(=O)O)NS(=O)(=O)c3cccc(-c4cccc(NC(=O)Nc5nc6ccccc6[nH]5)c4)c3)c2)C(C)C)C(=O)OCc2c1cc1n(c2=O)Cc2cc3ccccc3nc2-1` (stereo partly drawn) [Example 5] (X5-[X4][dP]LG[dL][dH][dV]-{Camptothecin(20R,20-O)}), the half-inhibitory concentration (IC50) was found to be 6000 nM at αvβ3 receptor (setting [1]), 80 nM in the data set with SW 480 (setting [2]), 100 nM with HT29 (setting [3]) and 350 nM with B16F10 (setting [4]). On MMP-2, the “MMP-2 mediated cleavage Peak area product/educt x100” value is on record as 5.

As to `CCCNC(=O)Nc1cccc(S(=O)(=O)Nc2cccc(C(CC(=O)O)NC(=O)Nc3ccc(NC(=O)N4CCC[C@@H]4C(=O)N[C@@H](CC(C)C)C(=O)NCC(=O)N[C@H](CC(C)C)C(=O)N[C@H](Cc4c[nH]cn4)C(=O)N[C@@H](C(=O)O[C@@]4(CC)C(=O)OCc5c4cc4n(c5=O)Cc5cc6ccccc6nc5-4)C(C)C)cc3)c2)c1` (stereo partly drawn) [Example 6] ({X2-CO}-[dP]LG[dL][dH][dV]-{Camptothecin(20R,20-O)}), the IC50 came to 60 nM on αvβ3 receptor (setting [1]), 50 nM in the data set on SW 480 (setting [2]), 40 nM in the data set with HT29 (setting [3]) and 150 nM in the data set on B16F10 (setting [4]). The “MMP-2 mediated cleavage Peak area product/educt x100” value on MMP-2 was found to be 33.

Turning to `CCCNC(=O)Nc1cccc(S(=O)(=O)Nc2cccc(C(CC(=O)O)NC(=O)Nc3ccc(NC(=O)NCCCC(=O)N4CCC[C@@H]4C(=O)N[C@@H](CC(C)C)C(=O)NCC(=O)N[C@H](CC(C)C)C(=O)N[C@H](Cc4c[nH]cn4)C(=O)N[C@@H](C(=O)O[C@@]4(CC)C(=O)OCc5c4cc4n(c5=O)Cc5cc6ccccc6nc5-4)C(C)C)cc3)c2)c1` (stereo partly drawn) [Example 17] ({X2-CO-GABA}-[dP]LG[dL][dH][dV]-{Camptothecin(20R,20-O)}), the half-maximal inhibitory concentration (IC50) on αvβ3 receptor (setting [1]) came out at 50 nM; in the data set on SW 480 (setting [2]) it was 70 nM; in the data set with HT29 (setting [3]), 100 nM; with B16F10 (setting [4]), 600 nM. The “MMP-2 mediated cleavage Peak area product/educt x100” value on MMP-2 came out at 16.

`CCCNC(=O)Nc1cccc(S(=O)(=O)Nc2cccc(C(CC(=O)O)NC(=O)Nc3ccc(NC(=S)N4CCC[C@@H]4C(=O)N[C@@H](CC(C)C)C(=O)NCC(=O)N[C@H](CC(C)C)C(=O)N[C@H](Cc4c[nH]cn4)C(=O)N[C@@H](C(=O)O[C@@]4(CC)C(=O)OCc5c4cc4n(c5=O)Cc5cc6ccccc6nc5-4)C(C)C)cc3)c2)c1` (single isomer, unassigned) [Example 3]: the half-maximal inhibitory concentration (IC50) on αvβ3 receptor (setting [5]) is 45 nM; in the data set on SW 480 (human, 6 days) it was 150 nM; in the data set with HT29 (human, 6 days), 200 nM; in the data set with B16F10 (mouse, 6 days), 600 nM. In addition, the “MMP-2 mediated cleavage Peak area product/educt x100” value on MMP-2 turned out to be 25.

As to `CCCNC(=O)Nc1cccc(S(=O)(=O)Nc2cccc(C(CC(=O)O)NC(=O)Nc3ccc(NC(=S)N4CCC[C@@H]4C(=O)N[C@@H](CC(C)C)C(=O)NCC(=O)N[C@H](CC(C)C)C(=O)N[C@H](CC(N)=O)C(=O)N[C@@H](C(=O)O[C@@]4(CC)C(=O)OCc5c4cc4n(c5=O)Cc5cc6ccccc6nc5-4)C(C)C)cc3)c2)c1` (single isomer, unassigned) [Example 11], the concentration for half-maximal inhibition (IC50) at αvβ3 receptor (setting [5]) was 300 nM; with SW 480 (human, 6 days) it was 150 nM; in the data set with HT29 (human, 6 days) it was 200 nM; in the data set on B16F10 (mouse, 6 days) it was 400 nM. For the same molecule, the “MMP-2 mediated cleavage Peak area product/educt x100” value at MMP-2 is on record as 20.

For the molecule `CC[C@]1(OC(=O)[C@H](NC(=O)[C@@H](Cc2c[nH]cn2)NC(=O)[C@@H](CC(C)C)NC(=O)CNC(=O)[C@H](CC(C)C)NC(=O)[C@H]2CCCN2C(=S)Nc2cccc(C(CC(=O)O)NS(=O)(=O)c3ccc(-c4cccc(NC(=O)Nc5nc6ccccc6[nH]5)c4)cc3)c2)C(C)C)C(=O)OCc2c1cc1n(c2=O)Cc2cc3ccccc3nc2-1` (stereo partly drawn) [Example 4] (X3-[X4][dP]LG[dL][dH][dV]-{Camptothecin(20R,20-O)}), the concentration for half-maximal inhibition (IC50) at αvβ3 receptor (setting [1]) amounted to 150 nM; in the data set on SW 480 (setting [2]) it was 70 nM; in the data set with HT29 (setting [3]) it was 90 nM; with B16F10 (setting [4]) it was 400 nM. At MMP-2, the “MMP-2 mediated cleavage Peak area product/educt x100” value is recorded as 6.

For `CCCNC(=O)Nc1cccc(S(=O)(=O)Nc2cccc(C(CC(=O)O)NC(=O)Nc3ccc(NC(=O)N4CCC[C@@H]4C(=O)N[C@@H](CC(C)C)C(=O)NCC(=O)N[C@H](CC(C)C)C(=O)N[C@H](CC(N)=O)C(=O)N[C@@H](C(=O)O[C@@]4(CC)C(=O)OCc5c4cc4n(c5=O)Cc5cc6ccccc6nc5-4)C(C)C)cc3)c2)c1` (stereo partly drawn) [Example 12] ({X2-CO}-[dP]LG[dL][dN][dV]-{Camptothecin(20R,20-O)}), the IC50 on αvβ3 receptor (setting [1]) turned out to be 300 nM; with SW 480 (setting [2]), 40 nM; with HT29 (setting [3]), 30 nM; with B16F10 (setting [4]) it was 150 nM. Also, on MMP-2, the “MMP-2 mediated cleavage Peak area product/educt x100” value came out at 70.
